Laboratory results reported in US20040005354A1, “Oral trimethobenzamide formulations and methods” (King Pharmaceuticals, Inc., priority 2002, published 2004).
Where two headings read alike, the source gives them in different places.

Legend:
[1] = cited from earlier work
[2] = in 48-72 hr; cited from earlier work
[3] = Safety assessment (adverse events, laboratory tests) in the four-way crossover study; format: in vivo, human (healthy subjects)
Source text: Seventy-four healthy, non-smoking, male & female subjects, 18-65 years old were enrolled in this study. A total of 68 subjects completed all the requirements of the protocol. There were no enrollment violations. However, nine of the 74 subjects began the study during the third period of the initial group of subjects. All 74 subjects who received at least one dose of study medication were included in the safety analysis.
This study was a single center, randomized, open-label, 4-way crossover study in healthy subjects. Dosing was administered in the fasted state. Seventy-four (74) subjects were randomized into the study. All seventy-four subjects received one or more doses of study medication and are therefore included in the safety assessment. On Treatment Day 1 of the first treatment period, each subject was randomized to receive one of four possible study treatment sequences. The treatment groups consisted of the four treatments administered sequentially as DCAB, ADBC, BACD or CBDA. These treatments are shown below.
A signed informed consent was obtained from each subject. For screening purposes, the following procedures were required of each subject and were performed by the clinical site within 30 days prior to the study: a complete physical examination including a medical history, vital signs, clinical laboratory safety tests on blood and urine, medications taken prior to and during the study, and a serum pregnancy test for female subjects.
During the treatments, temperature, blood pressure, heart rate and respiratory rate were monitored as a safety measure. A physical examination and clinical laboratory tests were repeated at the completion of the study. Subjects were observed and questioned throughout the study for the occurrence of any adverse events.
A total of 28 adverse events (AEs) were experienced; 27 were treatment emergent. Twenty-one (21) of these were assessed as related to study treatment. All related AEs are known to occur with trimethobenzamide and were primarily mild or moderate in intensity. One (1) severe AE occurred in one subject which was judged as unrelated to study treatment-severe pharyngitis. […] A summary of treatment emergent adverse events (AEs) is presented in Table 6 using the preferred medical term.

[4] = 74 subjects, all four treatment periods

## N-[2-(dimethylamino)-ethoxy]-3,4,5-trimethoxybenzamide hydrochloride [trimethobenzamide hydrochloride]
[1]; IM
  DURATION: 2 to 3 h
  ONSET: 15 to 35 min
[1]; PO
  DURATION: 3 to 4 h
  ONSET: 10 to 40 min
[1]; Rect
  DURATION: 3 to 4 h
  ONSET: 10 to 40 min
[2]
  drug excreted unchanged in the urine: 30%-50%
[3]; 5 percent prior to treatment
  subjects with decreased red blood cell count at the end of treatment: 11%
[3]; 8 percent prior to treatment
  subjects with low hematocrit at the end of treatment: 34%
[3]; [4]
  AEs assessed as related to study treatment: 21
  serious AEs: no serious AEs
  total adverse events (AEs) experienced: 28
  treatment emergent AEs: 27
[3]; all four treatment periods
  dizziness, number: 3
  neurologic complaints, number: 15
  paresthesias, number: 3
[3]; end of treatment vs prior
  hematocrit mean change: 2.3%
  hemoglobin mean change: 0.6 g/dL
  red blood cell count mean change: 2e+11 L⁻¹
[3]; in vivo
  overall safety and tolerability: safe and well tolerated
  subjects with normal hemoglobin prior to treatment who had low hemoglobin at the end of treatment: 13%
[3]; seen in a total of 7 subjects
  headaches, number: 8
[3]; sequence A D B C (N = 20)
  ABDOMINAL PAIN, subjects %: 5.0%
  ABDOMINAL PAIN, subjects n: 1
  CONJUNCTIVITIS, subjects %: 5.0%
  CONJUNCTIVITIS, subjects n: 1
  DIARRHEA, subjects %: 0.0%
  DIARRHEA, subjects n: 0
  DIZZINESS, subjects %: 15.0%
  DIZZINESS, subjects n: 3
  EDEMA, PALMAR, subjects %: 5.0%
  EDEMA, PALMAR, subjects n: 1
  ERYTHEMA, EXTERNAL NOSE, subjects %: 0.0%
  ERYTHEMA, EXTERNAL NOSE, subjects n: 0
  ERYTHEMA, PALMAR, subjects %: 5.0%
  ERYTHEMA, PALMAR, subjects n: 1
  HEADACHE, subjects %: 5.0%
  HEADACHE, subjects n: 1
  HYPOTONIA, subjects %: 0.0%
  HYPOTONIA, subjects n: 0
  INJECTION SITE REACTION, subjects %: 0.0%
  INJECTION SITE REACTION, subjects n: 0
  LARYNGISMUS, subjects %: 0.0%
  LARYNGISMUS, subjects n: 0
  LEG CRAMPS, subjects %: 0.0%
  LEG CRAMPS, subjects n: 0
  NAUSEA AND VOMITING, subjects %: 5.0%
  NAUSEA AND VOMITING, subjects n: 1
  NAUSEA, subjects %: 5.0%
  NAUSEA, subjects n: 1
  Number of Subject With At Least one AE, %: 25.0%
  Number of Subject With No AE, %: 75.0%
  PARESTHESIA, subjects %: 0.0%
  PARESTHESIA, subjects n: 0
  PHARYNGITIS, subjects %: 0.0%
  PHARYNGITIS, subjects n: 0
  RASH, subjects %: 0.0%
  RASH, subjects n: 0
[3]; sequence B A C D (N = 18)
  ABDOMINAL PAIN, subjects %: 0.0%
  ABDOMINAL PAIN, subjects n: 0
  CONJUNCTIVITIS, subjects %: 0.0%
  CONJUNCTIVITIS, subjects n: 0
  DIARRHEA, subjects %: 0.0%
  DIARRHEA, subjects n: 0
  DIZZINESS, subjects %: 0.0%
  DIZZINESS, subjects n: 0
  EDEMA, PALMAR, subjects %: 0.0%
  EDEMA, PALMAR, subjects n: 0
  ERYTHEMA, EXTERNAL NOSE, subjects %: 0.0%
  ERYTHEMA, EXTERNAL NOSE, subjects n: 0
  ERYTHEMA, PALMAR, subjects %: 0.0%
  ERYTHEMA, PALMAR, subjects n: 0
  HEADACHE, subjects %: 0.0%
  HEADACHE, subjects n: 0
  HYPOTONIA, subjects %: 0.0%
  HYPOTONIA, subjects n: 0
  INJECTION SITE REACTION, subjects %: 5.6%
  INJECTION SITE REACTION, subjects n: 1
  LARYNGISMUS, subjects %: 5.6%
  LARYNGISMUS, subjects n: 1
  LEG CRAMPS, subjects %: 0.0%
  LEG CRAMPS, subjects n: 0
  NAUSEA AND VOMITING, subjects %: 0.0%
  NAUSEA AND VOMITING, subjects n: 0
  NAUSEA, subjects %: 0.0%
  NAUSEA, subjects n: 0
  Number of Subject With At Least one AE, %: 22.2%
  Number of Subject With No AE, %: 77.8%
  PARESTHESIA, subjects %: 11.1%
  PARESTHESIA, subjects n: 2
  PHARYNGITIS, subjects %: 0.0%
  PHARYNGITIS, subjects n: 0
  RASH, subjects %: 5.6%
  RASH, subjects n: 1
[3]; sequence C B D A (N = 18)
  ABDOMINAL PAIN, subjects %: 0.0%
  ABDOMINAL PAIN, subjects n: 0
  CONJUNCTIVITIS, subjects %: 0.0%
  CONJUNCTIVITIS, subjects n: 0
  DIARRHEA, subjects %: 5.6%
  DIARRHEA, subjects n: 1
  DIZZINESS, subjects %: 0.0%
  DIZZINESS, subjects n: 0
  EDEMA, PALMAR, subjects %: 0.0%
  EDEMA, PALMAR, subjects n: 0
  ERYTHEMA, EXTERNAL NOSE, subjects %: 5.6%
  ERYTHEMA, EXTERNAL NOSE, subjects n: 1
  ERYTHEMA, PALMAR, subjects %: 0.0%
  ERYTHEMA, PALMAR, subjects n: 0
  HEADACHE, subjects %: 16.7%
  HEADACHE, subjects n: 3
  HYPOTONIA, subjects %: 5.6%
  HYPOTONIA, subjects n: 1
  INJECTION SITE REACTION, subjects %: 0.0%
  INJECTION SITE REACTION, subjects n: 0
  LARYNGISMUS, subjects %: 0.0%
  LARYNGISMUS, subjects n: 0
  LEG CRAMPS, subjects %: 0.0%
  LEG CRAMPS, subjects n: 0
  NAUSEA AND VOMITING, subjects %: 0.0%
  NAUSEA AND VOMITING, subjects n: 0
  NAUSEA, subjects %: 0.0%
  NAUSEA, subjects n: 0
  Number of Subject With At Least one AE, %: 22.2%
  Number of Subject With No AE, %: 77.8%
  PARESTHESIA, subjects %: 0.0%
  PARESTHESIA, subjects n: 0
  PHARYNGITIS, subjects %: 0.0%
  PHARYNGITIS, subjects n: 0
  RASH, subjects %: 0.0%
  RASH, subjects n: 0
[3]; sequence D C A B (N = 18)
  ABDOMINAL PAIN, subjects %: 0.0%
  ABDOMINAL PAIN, subjects n: 0
  CONJUNCTIVITIS, subjects %: 0.0%
  CONJUNCTIVITIS, subjects n: 0
  DIARRHEA, subjects %: 0.0%
  DIARRHEA, subjects n: 0
  DIZZINESS, subjects %: 0.0%
  DIZZINESS, subjects n: 0
  EDEMA, PALMAR, subjects %: 0.0%
  EDEMA, PALMAR, subjects n: 0
  ERYTHEMA, EXTERNAL NOSE, subjects %: 0.0%
  ERYTHEMA, EXTERNAL NOSE, subjects n: 0
  ERYTHEMA, PALMAR, subjects %: 0.0%
  ERYTHEMA, PALMAR, subjects n: 0
  HEADACHE, subjects %: 16.7%
  HEADACHE, subjects n: 3
  HYPOTONIA, subjects %: 0.0%
  HYPOTONIA, subjects n: 0
  INJECTION SITE REACTION, subjects %: 0.0%
  INJECTION SITE REACTION, subjects n: 0
  LARYNGISMUS, subjects %: 0.0%
  LARYNGISMUS, subjects n: 0
  LEG CRAMPS, subjects %: 5.6%
  LEG CRAMPS, subjects n: 1
  NAUSEA AND VOMITING, subjects %: 0.0%
  NAUSEA AND VOMITING, subjects n: 0
  NAUSEA, subjects %: 0.0%
  NAUSEA, subjects n: 0
  Number of Subject With At Least one AE, %: 27.8%
  Number of Subject With No AE, %: 72.2%
  PARESTHESIA, subjects %: 5.6%
  PARESTHESIA, subjects n: 1
  PHARYNGITIS, subjects %: 0.0%
  PHARYNGITIS, subjects n: 0
  RASH, subjects %: 0.0%
  RASH, subjects n: 0
